According to paper PMC11045757, “Group 3 medulloblastoma transcriptional networks collapse under domain specific EP300/CBP inhibition” (Nature Communications, 2024):
Where “and” joins values, the source holds several entries; their conditions need not be identical. Identical values can stand only once. Like-named read-outs stand apart in the source and are kept apart here.

Columns and labels:
[1] = system: MB002 group 3 medulloblastoma cells; experiment: CellTiter-Glo dose-response growth assay; format: cell-based; conditions: for IC50: MB002, 72 h, day 3, read-out: d3 IC50 MB002; for normalized growth (fraction of control), replicate values: MB002, log10[compound]
Method in brief: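 This is a dose-response growth assay in MB002 cells, a group 3 medulloblastoma line. Cells were plated at 500 cells/well in 384-well plates containing growth media and treated with compound over a concentration series. After the noted incubation period, CellTiter-Glo reagent was applied per the manufacturer's protocol and luminescence was read on an Envision 2104 microplate reader.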

[2] = system: HDMB03 (HDMBO3) group 3 medulloblastoma cells; experiment: CellTiter-Glo dose-response growth assay; format: cell-based; conditions: for normalized growth (fraction of control), replicate values: HDMBO3, log10[compound]; for IC50: Homo sapiens
Method in brief: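 Growth of the G3MB line HDMB03 was assessed across compound concentrations. Cells went into 384-well plates at 500 cells per well in growth medium and were exposed to compound for the indicated time. A CellTiter-Glo luminescence assay, run per manufacturer instructions and read on an Envision 2104 instrument, quantified remaining cell growth.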

[3] = HD-MB03, 72 h, day 3, read-out: d3 IC50 HDMBO3

Compound	IC50 [1] [nM]	normalized growth (fraction of control), replicate values ([1]; M = -4.7)	normalized growth (fraction of control), replicate values ([1]; M = -5.21)	normalized growth (fraction of control), replicate values ([1]; M = -5.73)	normalized growth (fraction of control), replicate values ([1]; M = -6.25)	normalized growth (fraction of control), replicate values ([1]; M = -6.76)	normalized growth (fraction of control), replicate values ([1]; M = -7.28)	normalized growth (fraction of control), replicate values ([2]; M = -4.7)	normalized growth (fraction of control), replicate values ([2]; M = -5.21)	normalized growth (fraction of control), replicate values ([2]; M = -5.73)	normalized growth (fraction of control), replicate values ([2]; M = -6.25)	normalized growth (fraction of control), replicate values ([2]; M = -6.76)	normalized growth (fraction of control), replicate values ([2]; M = -7.28)	normalized growth (fraction of control), replicate values ([2]; M = -7.79)	normalized growth (fraction of control), replicate values ([2]; M = -8.31)	normalized growth (fraction of control), replicate values ([2]; M = -8.82)	IC50 [2, 3] [nM]	IC50 ([2]; HD-MB03, HDMBO3 G3MB cell growth, read-out: IC50 (nM) HDMBO3) [nM]
CO[C@H]1CC[C@H](n2c([C@@H]3CCCC(=O)N3c3ccc(F)c(F)c3)nc3cc(-c4c(C)noc4C)ccc32)CC1 [CCS1477]	1280	0.021 and 0.012 (2×) and 0.014 and 0.011 (7×) and 0.01 (2×) and 0.007 (2×) and 0.009 (3×)	0.053 and 0.051 and 0.056 (2×) and 0.055 and 0.067 (4×) and 0.062 and 0.069 and 0.07 and 0.077 and 0.073 and 0.064 and 0.08 and 0.074 and 0.061	0.176 and 0.2 and 0.173 (2×) and 0.221 and 0.192 and 0.209 and 0.163 and 0.174 and 0.198 and 0.167 and 0.182 and 0.161 and 0.164 and 0.153 and 0.149 and 0.147 and 0.172	0.427 and 0.39 and 0.435 and 0.48 and 0.521 and 0.536 and 0.339 and 0.326 and 0.323 and 0.364 and 0.327 and 0.314 and 0.325 and 0.273 (2×) and 0.287 (2×) and 0.391	0.571 and 0.619 and 0.593 and 0.57 (2×) and 0.624 and 0.745 and 0.543 and 0.601 and 0.505 and 0.54 and 0.511 and 0.346 and 0.471 and 0.506 and 0.447 and 0.463 and 0.363	0.767 and 0.779 and 0.746 and 0.805 and 0.733 and 1.069 and 0.749 and 0.742 and 0.816 and 0.687	0.042 and 0.025 and 0.028 and 0.036 and 0.035 and 0.041 and 0.053 (2×) and 0.048 and 0.054 and 0.043 and 0.052	0.044 and 0.033 (2×) and 0.034 and 0.036 and 0.027 and 0.037 and 0.05 and 0.032 and 0.029 and 0.031 and 0.04	0.036 and 0.028 and 0.032 and 0.05 and 0.027	0.073 and 0.039 (2×) and 0.064 (2×) and 0.053 and 0.055 and 0.069 and 0.061 and 0.031 and 0.047 and 0.041	0.122 and 0.123 and 0.093 and 0.099 and 0.112 and 0.108 and 0.113 and 0.078 and 0.09 and 0.094 and 0.079 and 0.066	0.344 and 0.279 and 0.281 and 0.294 and 0.307 and 0.364 and 0.263 and 0.244 and 0.257 and 0.231 and 0.199 and 0.251	0.653 and 0.647 and 0.598 and 0.634 and 0.582 and 0.697 and 0.7 and 0.556 and 0.819 and 0.469 and 0.726 and 0.588	0.976 and 1.03 and 0.907 and 0.959 and 0.846 and 0.924 and 0.949 and 0.892 and 1.092 and 1.013 and 0.868	1.054 and 0.933 and 1.006 and 0.821 and 1.079 and 1.062 and 1.187 and 0.91 and 1.023 (2×) and 0.934 and 0.969	39	82 ± 32
CNC(=O)Nc1ccc2c(c1)CCC21OC(=O)N(CC(=O)N(Cc2ccc(F)cc2)C(C)C(F)(F)F)C1=O (centres unmarked) [Compound A485]	1970																400	
